In general, MIC refers to the lowest concentration that inhibits growth of the organism. The term CC50 denotes the concentration at which the toxic effect on the cells reaches its halfway point. The low end stands for harm at low concentration, the high end for better tolerance by the cells. Usually solubility stands for the concentration that dissolves in the medium under given conditions. Low readings indicate little dissolved substance, high ones much dissolved substance. One may read the fraction unbound as free concentration divided by total concentration.

Converted amounts (≈) assume the structure as drawn.

Data set [1] concerns E. coli TolC(−). In words: TolC(−) MIC (NB). Particulars: Escherichia coli, read-out: TolC(−) MIC (μM)(NB). The data set is classed as cell-based.
Data set [2] is described as follows: Mammalian cell cytotoxicity.
A short description of data set [3]: Microsomal stability + NADPH. To be noted: mouse liver microsomes, 0.5 hr at 37° C. (In general: Liver microsomes are vesicles of endoplasmic reticulum, rich in cytochrome P450 enzymes.)
A short description of data set [4]: Aqueous solubility, nephelometry. To be noted: water, kinetic from dmso stock.
Data set [5] concerns MRSA-1094 (MDR). Format: cell-based. Particulars: Staphylococcus aureus; MRSA-1094 (MDR); read-out: MIC.
Data set [6] deals with S. aureus ATCC 25923 (MSSA. osteomyelitis isolate). Format: cell-based. To be noted: Staphylococcus aureus; S. aureus ATCC 25923 (MSSA); read-out: MIC.
The subject of data set [7] is E. coli (700, TolC+) efflux pos. Format: cell-based. Particulars: Escherichia coli; E. coli (700, TolC+) efflux pos; read-out: MIC.
In data set [8] the test system is E. coli TolC(−). To be noted: MIC in the presence of 10% fetal calf serum versus without.
Data set [9] is described as follows: Mouse serum binding, equilibrium dialysis. A general note: In equilibrium dialysis only unbound substance equilibrates across the membrane.
The nature of data set [10]: Mouse serum stability. Particulars: 5 μM, 37° C., 4 h.

For `Cc1ccc(Oc2ccc(C(=O)Nc3nnc(-c4ccc(F)cc4)o3)cc2)cc1` [compound 4305], the MIC in [1] came out at 0.781 µM (≈ 0.304 µg/mL). Moreover, in data set [2], the CC50 stood at 32 µM. In addition, the “Microsomal Stability + NADPH % degraded” value in data set [3] is listed as less than 30%. In data set [4], the concentration in solution (solubility) came to 3.13 µM (≈ 1.22 µg/mL).
The like results for `Cc1cccc(Oc2ccc(C(=O)Nc3nnc(-c4ccc(F)cc4)o3)cc2)c1` [compound 4306] were, in that order, 0.984 µM (≈ 0.383 µg/mL), greater than 100 µM, less than 30% and 6.25 µM (≈ 2.43 µg/mL).
Turning to `Cc1ccccc1Oc1ccc(C(=O)Nc2nnc(-c3ccc(F)cc3)o2)cc1` [compound 4307], the MIC in data set [1] is 1.56 µM (≈ 0.608 µg/mL). Moreover, the CC50 in [2] worked out at 65 µM. The “Microsomal Stability + NADPH % degraded” value in data set [3] was less than 30%. Besides, the concentration in solution in data set [4] (solubility) was 12.5 µM (≈ 4.87 µg/mL).
Regarding `Cc1cc(C)cc(Oc2ccc(C(=O)Nc3nnc(-c4ccc(F)cc4)o3)cc2)c1` [compound 4308], the MIC in [1] was found to be 1.56 µM (≈ 0.63 µg/mL). The CC50 in data set [2] was 32 µM. Moreover, in data set [3], the “Microsomal Stability + NADPH % degraded” value is on record as less than 30%. This molecule also yielded a solubility in data set [4] of 3.13 µM (≈ 1.26 µg/mL).
In the case of `COc1cccc(Oc2ccc(C(=O)Nc3nnc(-c4ccc(F)cc4)o3)cc2)c1` [compound 4309], the MIC in data set [1] came out at 0.984 µM (≈ 0.399 µg/mL). The same molecule returned a CC50 in [2] greater than 100 µM. Besides, the “Microsomal Stability + NADPH % degraded” value in [3] is given as less than 30%. Also, the solubility in [4] was determined as 6.25 µM (≈ 2.53 µg/mL).
On to `COc1ccc(Oc2ccc(C(=O)Nc3nnc(-c4ccc(F)cc4)o3)cc2)cc1` [compound 4310], for which the MIC in [1] is 0.781 µM (≈ 0.317 µg/mL). In [2], the CC50 is greater than 100 µM. Further, the “Microsomal Stability + NADPH % degraded” value in [3] is listed as less than 30%. The molecule further came in with a solubility in data set [4] of 6.25 µM (≈ 2.53 µg/mL).
In the case of `C=CCN(C)C(=O)Nc1nnc(-c2ccc(F)cc2)o1` [compound 4345], the MIC in [5] was 19.5 µg/mL (≈ 70.7 µM); in data set [6] it was 27.6 µg/mL (≈ 99.9 µM); in [7], greater than 27 µg/mL; in [1], 25 µM (≈ 6.91 µg/mL).
For `COC(=O)C1=CCN(C(=O)Nc2nnc(-c3ccc(F)cc3)o2)CC1` [compound 4348], in [1], the MIC is 12.5 µM (≈ 4.33 µg/mL). The molecule also gave a CC50 in data set [2] greater than 100 µM. In data set [4], this molecule returned a solubility of 25 µM (≈ 8.66 µg/mL).
Consider `CC(Oc1ccc(C(=O)Nc2nnc(-c3ccc(F)cc3)o2)cc1)c1ccccc1` (centres unmarked) [compound 4357], for which, in data set [1], the MIC stood at 1.56 µM (≈ 0.63 µg/mL). The same molecule displayed a CC50 in data set [2] of 45 µM. For the same molecule, the solubility in data set [4] was found to be 3.1 µM (≈ 1.25 µg/mL).
As for `O=C(Nc1nnc(-c2ccc(F)cc2)o1)N1CCN(c2ncccn2)CC1` [compound 4465], the MIC in [1] amounted to 6.25 µM (≈ 2.31 µg/mL). In addition, the CC50 in [2] was greater than 100 µM. The molecule further registered a solubility in data set [4] of 12.5 µM (≈ 4.62 µg/mL).
With `O=C(Nc1nnc(C2CCCC2)o1)c1ccc(Oc2ccccc2)nc1` [compound 4470], the MIC in data set [1] came to 7.02 µM (≈ 2.46 µg/mL). In addition, the “Fold Serum Shift vs. TolC(−)” value in data set [8] was 7.1 fold. This molecule showed a CC50 in [2] greater than 100 µM. Moreover, in data set [3], the “Microsomal Stability + NADPH % degraded” value stood at 2%. Besides, the solubility in data set [4] worked out at 100 µM (≈ 35 µg/mL). Besides, the fraction unbound in data set [9] is 0.022.
For the molecule `O=C(Nc1nnc(C2CCCCC2)o1)c1ccc(Oc2ccccc2)nc1` [compound 4780], in [1], the MIC was 1.24 µM (≈ 0.452 µg/mL). In data set [9], this molecule showed a fraction unbound of 0.005.
On to `O=C(Nc1nnc(-c2ccc(F)cc2)o1)N1CC(C(F)(F)F)C(C(F)(F)F)C1` (centres unmarked) [compound 4839], for which the MIC in data set [1] was 3.13 µM (≈ 1.29 µg/mL). In addition, the “Fold Serum Shift vs. TolC(−)” value in data set [8] is reported as 12.5 fold. In addition, the “Serum Stability (% remain)” value in [10] is greater than 95%. In [4], the solubility stood at 6.25 µM (≈ 2.58 µg/mL).
Regarding `O=C(Nc1nnc(-c2ccc(F)cc2)o1)N1CCC(C(F)(F)F)CC1` [compound 4840], the MIC in data set [1] is 6.25 µM (≈ 2.24 µg/mL). Moreover, the “Fold Serum Shift vs. TolC(−)” value in data set [8] was 4 fold.
For the molecule `CC(C)(C)C1=CCN(C(=O)Nc2nnc(-c3ccc(F)cc3)o2)CC1` [compound 4841], the MIC in data set [1] is 6.25 µM (≈ 2.15 µg/mL). Moreover, the “Fold Serum Shift vs. TolC(−)” value in [8] was 8 fold.
Regarding `O=C(Nc1nnc(-c2ccc(F)cc2)o1)N1CCC2(CCC2)CC1` [compound 4842], the MIC in [1] was 6.25 µM (≈ 2.06 µg/mL). Also, the “Fold Serum Shift vs. TolC(−)” value in data set [8] is reported as 4 fold. Also, the “Serum Stability (% remain)” value in data set [10] stood at 77%.
For `CC1=C(Br)CN(C(=O)Nc2nnc(-c3ccc(F)cc3)o2)CC1` [compound 4923], in [1], the MIC stood at 0.78 µM (≈ 0.297 µg/mL). Further, the “Fold Serum Shift vs. TolC(−)” value in [8] was determined as 18 fold. Moreover, the “Serum Stability (% remain)” value in data set [10] is greater than 95%.

(Values after US11505533B2, “Metabolically stable N-acylaminooxadiazoles useful as antibacterial agents” (MICROBIOTIX, INC., priority 2017, dated 2022).)
